# Columns and labels:
# Assay type in all cases: functional
# Conditions in all cases: Female gonad
# Macrotermes subhyalinus [1] = test: Effect on oxygen consumption in Macrotermes subhyalinus ovary mitochondria assessed as inhibition of state 3 respiration assessed oxygen atom per mg protein per min at 250 uM by polarographic analysis
# Macrotermes subhyalinus [2] = test: Inhibition of oxidative phosphorylation in Macrotermes subhyalinus ovary mitochondria assessed as respiratory control ratio assessed oxygen atom per mg protein per min at 250 uM
# Macrotermes subhyalinus [3] = test: Inhibition of oxidative phosphorylation in Macrotermes subhyalinus ovary mitochondria assessed as ADP/O ratio at 250 uM
# Macrotermes subhyalinus [4] = test: Effect on phosphorylation rate in Macrotermes subhyalinus ovary mitochondria assessed as nmoles ATP synthesized per mg protein per min at 250 uM
# Macrotermes subhyalinus [5] = test: Effect on oxygen consumption in Macrotermes subhyalinus ovary mitochondria assessed as inhibition of state 4U respiration assessed oxygen atom per mg protein per min at 250 uM in presence of 2,4-dinitrophenol by polarographic analysis
# Macrotermes subhyalinus [6] = test: Effect on oxygen consumption in Macrotermes subhyalinus ovary mitochondria assessed as inhibition of state 4 respiration assessed oxygen atom per mg protein per min at 250 uM by polarographic analysis
# Macrotermes subhyalinus [7] = test: Effect on oxygen consumption in Macrotermes subhyalinus ovary mitochondria assessed as inhibition of state 4U respiration assessed oxygen atom per mg protein per min at 100 uM in presence of 2,4-dinitrophenol by polarographic analysis
# Macrotermes subhyalinus [8] = test: Effect on phosphorylation rate in Macrotermes subhyalinus ovary mitochondria assessed as nmoles ATP synthesized per mg protein per min at 100 uM
# Macrotermes subhyalinus [9] = test: Effect on oxygen consumption in Macrotermes subhyalinus ovary mitochondria assessed as inhibition of state 4 respiration assessed oxygen atom per mg protein per min at 100 uM by polarographic analysis
# Macrotermes subhyalinus [10] = test: Effect on oxygen consumption in Macrotermes subhyalinus ovary mitochondria assessed as inhibition of state 3 respiration assessed oxygen atom per mg protein per min at 100 uM by polarographic analysis
# Macrotermes subhyalinus [11] = test: Inhibition of oxidative phosphorylation in Macrotermes subhyalinus ovary mitochondria assessed as respiratory control ratio assessed oxygen atom per mg protein per min at 100 uM
# Macrotermes subhyalinus [12] = test: Inhibition of oxidative phosphorylation in Macrotermes subhyalinus ovary mitochondria assessed as ADP/O ratio at 100 uM
SMILES,Activity (Macrotermes subhyalinus [1]),Ratio (Macrotermes subhyalinus [2]),Ratio (Macrotermes subhyalinus [3]),Activity (Macrotermes subhyalinus [4]),Activity (Macrotermes subhyalinus [5]),Activity (Macrotermes subhyalinus [6]),Activity (Macrotermes subhyalinus [7]),Activity (Macrotermes subhyalinus [8]),Activity (Macrotermes subhyalinus [9]),Activity (Macrotermes subhyalinus [10]),Ratio (Macrotermes subhyalinus [11]),Ratio (Macrotermes subhyalinus [12])
C=C1C(=O)[C@]23C[C@H]1C[C@@H](O)[C@H]2[C@@]12CO[C@@H](O)[C@@H]1C(C)(C)CC[C@@H]2OC3=O,94.8,2.3,1.79,170,61.8,41.2,,,,,,
C=C1C(=O)[C@]23C[C@H]1CC[C@H]2[C@@]12CO[C@@H](O)[C@@H]1C(C)(C)[C@@H](O)C[C@@H]2OC3=O,,,,,,,104,186,33.6,115,3.41,1.62
C=C1C(=O)[C@]23[C@H](O)[C@H]1CC[C@H]2[C@@]12CO[C@]3(O)[C@@H](O)[C@@H]1C(C)(C)CC[C@@H]2O,,,,,,,106,156,32.4,118,3.63,1.33
C=C1C(=O)[C@]23C[C@H]1C[C@H](O)[C@H]2[C@]1(COC(C)=O)[C@H](CCC(C)(C)[C@H]1C=O)OC3=O,,,,,,,41.2,121,44.2,118,2.66,1.03

# Source: ChEMBL document CHEMBL1151376, “Inhibition of Mitochondrial Function in Termite Queen Ovary by Rabdosia Diterpenoids” (J Nat Prod, 1981)
